Data taken from US20210254087A1, “METHODS FOR ENHANCING GENOME ENGINEERING EFFICIENCY” (KWS SAAT SE & CO. KGaA, priority 2018, published 2021).

Tests used:
Type in all cases: cell-based
[1] = system: leaves of corn plants; test: Co-delivery of 2,4-D with tdTomato construct pGEP359 by microprojectile bombardment, transient transformation; details: 250 ng 2,4-D, 20 hours after bombardment, vs without 2,4-D
Protocol: Corn plants have grown in greenhouse. In stage V8 microprojectile bombardment was conducted using a Bio-Rad PDS-1000/He particle gun. The bombardment conditions are: 27-28 mm/Hg vacuum, 450 or 650 psi rupture disc, 6 mm gap distance. 20 hours after bombardment, transient transformation was examined using a fluorescence microscope for the tdTomato gene expression at excitation maximum 554 nm and emission maximum 581 nm. Plasmid DNA and 2,4-D co-coating onto gold particles for bombardment were conducted as described in Example 1. 2,4-D stock solution (e.g. 25 mg/ml in DMSO).

[2] = system: corn Hi II immature embryos; test: Co-delivery of 2,4-D with mNeonGreen construct pGEP362 by microprojectile bombardment, transient transformation; details: 250 ng 2,4-D, 100 μg gold particles, 16 hours after bombardment, vs no 2,4-D
Protocol: Embryo isolation and microprojectile bombardment and post-bombardment handlings were performed using the same procedure as described in Example 1.
The amounts of 2,4-D used for a bombardment with 100 μg of gold particles (approximately, 4.0-5.0×10^7 0.6 μm gold particles) are in range of 1.0 ng to 1000 ng, preferred 10 ng to 500 ng. Plasmid DNA and 2,4-D co-coating onto gold particles for bombardment were conducted as described in Example 1. 2,4-D stock solution (e.g. 1 mg/ml) is prepared in 100% DMSO.

[3] = system: corn Hi II type II callus; test: as above; details: 125 ng, 250 ng, 500 ng 2,4-D vs 0 ng; 16 hours after bombardment
Protocol: Type II callus culture and microprojectile bombardment and post-bombardment handlings were performed using the same procedure as described in Example 2.
The amounts of 2,4-D used for a bombardment with 100 μg of gold particles (approximately, 4.0-5.0×10^7 0.6 μm gold particles) are in range of 1.0 ng to 1000 ng, preferred 10 ng to 500 ng. Plasmid DNA and 2,4-D co-coating onto gold particles for bombardment were conducted as described in Example 6.

[4] = system: corn Hi II type II calluses; test: Co-delivery of TSA with gene editing constructs pGEP359 and pGEP353, site-specific InDel rate by NGS; details: 15 ng TSA vs no TSA, 13 days after co-bombardment
Protocol: Type II callus culture and microprojectile bombardment and post-bombardment handlings were performed using the same procedure as described in Example 2. 2-15 days after bombardment, the calluses were harvested and used for genomic DNA isolation with a Plant DNA Isolation kit from Qiagen. NGS (next generation sequencing) was conducted by Illumina Miseq platform. InDel (insertion and deletion) rate was analyzed by means of CRISPResso.

[5] = system: corn Hi II immature embryos; test: Co-delivery of TSA with tdTomato construct pLH-Pat5077399-70Subi-tDt by microprojectile bombardment, transient transformation
Protocol: Procedure: Prepare corn immature embryo for bombardment: 8-10 days post pollination, maize ears (i.e. A188 or Hi II) with immature embryos size 0.8 to 1.8 mm were harvested. The ears were sterilized with 70% ethanol for 10-15 minutes. After a brief air-dry in a laminar hood, remove top ˜⅓ of the kernels from the ears with a shark scalpel, and pull the immature embryos out of the kernels carefully with a spatula. The fresh isolated embryos were placed onto the bombardment target area in an osmotic medium plate (see below) with scutellum-side up. Wrap the plates with parafilm and incubated them at 25° C. in dark for 4-20 hours before bombardment.
The amounts of TSA used for a bombardment with 100 μg of gold particles (approximately, 4.0-5.0×10^7 0.6 micron gold particles) are in range of 0.01 ng to 500 ng, preferred 0.1 to 50 ng. Plasmid DNA and TSA co-coating onto gold particles for bombardment: For 10 shots, 1 mg of gold particle size 0.6 micron (μm) in 50% (v/v) glycerol (100 μg gold particles per shot) in a total volume of 100 microliter (μl) was pipetted into a clear low-retention microcentrifuge tube. Sonicate for 15 seconds to suspend the gold particles. While vortex at a low speed, add the following in order to each 100 μl of gold particles: • Up to 10 μl of DNA (1.0 μg total DNA, 100 ng per shot) • 100 μl of 2.5 M CaCl2) (pre-cold on ice) • 40 μl of 0.1 M cold spermidine
Close the lid and vortex the tube for 2-30 minutes at 0-10° C., and spin down the DNA-coated gold particles. After washing in 500 μl of 100% ethanol for two times, the pellet was resuspended in 120 μl of 100% ethanol. […]
Bombardment was conducted using a Bio-Rad PDS-1000/He particle gun. […] 16-48 hours after bombardment, transient transformation was examined using a fluorescence microscope for the tdTomato gene expression at excitation maximum 554 nm and emission maximum 581 nm. […]

[6] = system: corn Hi II type II calluses; test: Co-delivery of TSA with tdTomato construct pGEP359 by microprojectile bombardment, transient transformation; details: 15 ng TSA, 100 μg gold particles, 16 hours after bombardment, vs no TSA
Protocol: Type II callus induction and selection: Hi II immature embryos size 0.8-1.8 mm were isolated as described in Example 1, and were placed onto type II callus induction medium (see below) immediately with scutellum-side up, in a density of 10-15 embryo per plate (diameter of 100 mm). Wrap the plates with parafilm, and culture the embryos in plate at 27° C. in the dark until type II callus emerged (˜2 weeks). Pick friable type II calluses under a stereoscope, and move them onto type II callus selection medium (see below). Repeat this process for 2-3 more times, and trash the embryos 4 weeks after induction. Select pre-embryo stage of type II callus under a stereoscope carefully based on: friability (highly friable), morphology (no embryo-like structure), color (fresh, white, semi-transparent). Select and subculture type II callus every 1-2 week in callus selection medium (see below) until the callus lines stabilized (about 3-5 rounds of selection). Stable type II callus lines were cultured in type II callus subculture medium (see below) every 1 to 2 weeks.
Preparation of type II callus for bombardment: Select and transfer highly friable type II callus at pre-embryo stage onto the bombardment target region in an osmotic medium plate (see Example 1) (single layer, no overlapping). […]

[7] = system: corn Hi II immature embryos; test: Co-delivery of TSA with gene editing construct pGEP284, site-specific InDel rate by NGS
Protocol: Embryo isolation, microprojectile bombardment and post-bombardment handlings were performed using the same procedure as described in Example 1. Two days after bombardment, the embryos were harvested and used for genomic DNA isolation use Plant DNA Isolation kit from Qiagen (Venlo, Netherlands). NGS (next generation sequencing) was conducted by Miseq platform of Illumina Inc. (San Diego, Calif., USA). InDel (insertion and deletion) rate was analyzed by means of CRISPResso (http://crispresso.rocks/).

[8] = system: sugar beet friable calluses; test: Co-delivery of TSA with pLH-Pat5077399-70Subi-tDt by microprojectile bombardment, transient transformation; details: 15 ng TSA, 300 μg gold particles, 24 hours after bombardment, vs no TSA
Protocol: Sugar beet callus induction: young leaves from in vitro cultured sugar beet shoots in shoot culture medium (see below) were cut into small pieces (square, size 3-5 mm) in a laminar hood, and placed them onto callus induction medium (see below), in a density of 10-15 pieces per plate (diameter of 100 mm) with adaxial-side up. Wrap the plates with parafilm, and culture the leaf segments in plate at 23° C. in the dark for 6-8 weeks until callus emerged.
Preparation of sugar beet callus for bombardment: harvest friable fresh calluses under a stereoscope, and transfer them onto the bombardment target area in a sugar beet osmatic medium (see below) (single layer, no overlapping). Wrap the plates with parafilm and incubated at 25° C. in dark for 4-20 hours before bombardment.
Microprojectile bombardment and post-bombardment handlings were conducted using the same procedure descripted in Example 1, except for the amount of gold particles used for a bombardment was 300 μg.
Sugar beet shoot culture medium: MS, 0.25 mg/L of BAP, 30 g/L of sucrose, 8 g/I plant agar, pH 6.0
Sugar beet callus induction medium: MS, 2.0 mg/L of BAP, 15 g/L of sucrose, 8 g/I plant agar, pH 6.0
Sugar beet callus osmatic medium: MS, 2.0 mg/L of BAP, 15 g/L of sucrose, 0.2 M Mannitol (36.4 g/L), 0.2 M sorbitol (36.4 g/L), 8 g/I plant agar, pH 6.0

[9] = system: corn Hi II type II calluses; test: Co-delivery of 6-BA or zeatin with tdTomato construct pGEP359 by microprojectile bombardment, transient transformation; details: 250 ng hormone, 100 μg gold particles, 16 hours after bombardment, vs no hormone
Protocol: The amounts of 6-BA or zeatin used for a bombardment with 100 μg of gold particles (approximately, 4.0-5.0×10^7 0.6 μm gold particles) are in range of 1.0 ng to 10000 ng, preferred 10 ng to 1000 ng.

O=C(O)COc1ccc(Cl)cc1Cl [2,4-D, 2,4-Dichlorophenoxyacetic acid]
effect on transient transformation in corn leaves [1]: improved the transient transformation | increase in average number of green fluorescent cells per embryo [2]: 187% | increase of average number of green fluorescent cells per field [3]: at least 34.8%

CC(/C=C/C(=O)NO)=C\[C@@H](C)C(=O)c1ccc(N(C)C)cc1 [TSA, trichostatin A]
increase of site-specific InDel rate, factor [4]: 6.75 | increase of site-specific InDel rate, percent [4]: 575% | increase of average number of red fluorescent cells (positively transient transformed cells) per embryo ([5]; 15 ng TSA, 100 μg gold particles 0.6 μm, 16 hours after bombardment, vs no TSA): 98.2% | effect of lower and higher TSA amounts on transient transformed cells ([5]; 15 ng and 45 ng TSA vs no TSA, 16 hours): significant increase of transient transformed cells | TSA amount giving optimum of average number of fluorescent cells per field ([5]; no TSA, 15, 30, 45 ng TSA tested, 16 hours): around 30 ng | increase of average number of fluorescent cells per field [6]: 43.3% | effect of lower and higher TSA amounts on InDel rates ([7]; 15 ng and 45 ng TSA compared to absence of TSA, 2 days): significant increase of InDel rates | TSA amount giving optimum of rates of InDel events ([7]; no TSA, 15, 30, 45 ng TSA tested, 2 days after bombardment, pGEP284): around 30 ng | increase of average number of fluorescent cells per field [8]: 193.7%

c1ccc(CNc2ncnc3nc[nH]c23)cc1 [6-BA, 6-Benzylaminopurine]
increase in average number of red fluorescent cells per field [9]: 35.8%

C/C(=C\CNc1ncnc2[nH]cnc12)CO [zeatin, Zeatin]
increase in average number of red fluorescent cells per field [9]: 31.2%
